Our source for the IC50 values is patent US10479795B2 (Incyte Corporation, priority 2016, dated 2019).

Like-named read-outs stand apart in the source and are kept apart here. A value given as a limit tells only on which side of the number the result lay.

The subject of experiment [1] is Phosphorylated Ribosomal Protein S6 (RPS6). Nature of the experiment: THP-1 RPS6 ELISA Assay. The class given is cell-based, Human. The conditions noted are these: THP-1 cells, read-out: PI3Kγ_THP1_RPS6_ELISA IC50. The method, boiled down: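 IC50 values come from a curve of percent inhibition against log compound concentration, using phospho-RPS6 ELISA (450 nm) on THP-1 lysates. Cells were serum-starved overnight, exposed to compound for 2 h at 37 °C, then challenged 15 min with 10 nM MCP-1.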

The target in experiment [2] is PI3Kδ (p110δ/p85α) Recombinant Human Protein (Homo sapiens (Human), UniProt O00329). Nature of the experiment: PI3Kδ Scintillation Proximity Assay. The class given is biochemical. The method, boiled down: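 Assay conditions: 2 μM ATP (radiolabelled), 20 μM PIP2, 3.4 nM PI3Kδ, 20 mM MOPS pH 6.7 with 10 mM MgCl2, 5 mM DTT, 0.03% CHAPS, 2 h at room temperature. Signal from bead-captured 33P product; IC50 versus solvent control.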
In general terms: SPA uses beads or plates that emit light when radiolabelled molecules are held near them.

For experiment [3], the target named is PI3Kγ (p110γ) Recombinant Human Protein (Homo sapiens (Human), UniProt P48736). Nature of the experiment: PI3K-γ Scintillation Proximity Assay. The class given is biochemical. The conditions noted are these: read-out: PI3Kγ IC50. The method, boiled down:
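Radiometric SPA readout: […] bound to WGA beads after overnight shaking, IC50 derived from % activity of DMSO control. Reaction used human p110γ, 2 μM ATP, 20 μM PIP2, pH 6.7 MOPS buffer with MgCl2, DTT, CHAPS, 2% DMSO, room temperature.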

In general, IC50 refers to the concentration at which inhibition is half-maximal.

PI3Kγ (p110γ) Recombinant Human Protein, sequence (P48736 whole entry): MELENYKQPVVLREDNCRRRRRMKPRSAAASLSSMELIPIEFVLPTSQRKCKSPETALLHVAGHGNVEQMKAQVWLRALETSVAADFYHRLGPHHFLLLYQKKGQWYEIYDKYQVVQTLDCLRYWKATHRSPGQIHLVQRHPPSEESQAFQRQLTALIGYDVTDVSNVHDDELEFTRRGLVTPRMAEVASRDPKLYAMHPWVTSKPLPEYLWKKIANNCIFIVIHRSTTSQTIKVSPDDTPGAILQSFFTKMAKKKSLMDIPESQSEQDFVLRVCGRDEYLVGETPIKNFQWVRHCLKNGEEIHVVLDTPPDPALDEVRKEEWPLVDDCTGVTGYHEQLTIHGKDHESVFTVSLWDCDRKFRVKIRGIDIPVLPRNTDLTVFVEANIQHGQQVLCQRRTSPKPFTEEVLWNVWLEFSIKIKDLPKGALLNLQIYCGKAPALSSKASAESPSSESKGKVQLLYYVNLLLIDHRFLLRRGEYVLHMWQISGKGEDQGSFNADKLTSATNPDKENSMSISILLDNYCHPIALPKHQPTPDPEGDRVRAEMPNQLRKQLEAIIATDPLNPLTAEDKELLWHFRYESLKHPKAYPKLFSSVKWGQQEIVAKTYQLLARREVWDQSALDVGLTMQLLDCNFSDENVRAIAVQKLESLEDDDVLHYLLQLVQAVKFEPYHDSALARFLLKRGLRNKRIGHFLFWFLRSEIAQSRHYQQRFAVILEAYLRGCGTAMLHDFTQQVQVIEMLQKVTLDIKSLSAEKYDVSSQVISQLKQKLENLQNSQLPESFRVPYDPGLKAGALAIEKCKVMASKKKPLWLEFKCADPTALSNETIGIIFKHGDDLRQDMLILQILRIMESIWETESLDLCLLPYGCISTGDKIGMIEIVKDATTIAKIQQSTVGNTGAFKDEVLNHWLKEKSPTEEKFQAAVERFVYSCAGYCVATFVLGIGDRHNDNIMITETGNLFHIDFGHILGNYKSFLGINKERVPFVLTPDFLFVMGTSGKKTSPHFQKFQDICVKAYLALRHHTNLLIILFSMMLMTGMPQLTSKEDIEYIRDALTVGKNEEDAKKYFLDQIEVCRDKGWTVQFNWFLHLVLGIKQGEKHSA
PI3Kδ (p110δ/p85α) Recombinant Human Protein, sequence (O00329 whole entry): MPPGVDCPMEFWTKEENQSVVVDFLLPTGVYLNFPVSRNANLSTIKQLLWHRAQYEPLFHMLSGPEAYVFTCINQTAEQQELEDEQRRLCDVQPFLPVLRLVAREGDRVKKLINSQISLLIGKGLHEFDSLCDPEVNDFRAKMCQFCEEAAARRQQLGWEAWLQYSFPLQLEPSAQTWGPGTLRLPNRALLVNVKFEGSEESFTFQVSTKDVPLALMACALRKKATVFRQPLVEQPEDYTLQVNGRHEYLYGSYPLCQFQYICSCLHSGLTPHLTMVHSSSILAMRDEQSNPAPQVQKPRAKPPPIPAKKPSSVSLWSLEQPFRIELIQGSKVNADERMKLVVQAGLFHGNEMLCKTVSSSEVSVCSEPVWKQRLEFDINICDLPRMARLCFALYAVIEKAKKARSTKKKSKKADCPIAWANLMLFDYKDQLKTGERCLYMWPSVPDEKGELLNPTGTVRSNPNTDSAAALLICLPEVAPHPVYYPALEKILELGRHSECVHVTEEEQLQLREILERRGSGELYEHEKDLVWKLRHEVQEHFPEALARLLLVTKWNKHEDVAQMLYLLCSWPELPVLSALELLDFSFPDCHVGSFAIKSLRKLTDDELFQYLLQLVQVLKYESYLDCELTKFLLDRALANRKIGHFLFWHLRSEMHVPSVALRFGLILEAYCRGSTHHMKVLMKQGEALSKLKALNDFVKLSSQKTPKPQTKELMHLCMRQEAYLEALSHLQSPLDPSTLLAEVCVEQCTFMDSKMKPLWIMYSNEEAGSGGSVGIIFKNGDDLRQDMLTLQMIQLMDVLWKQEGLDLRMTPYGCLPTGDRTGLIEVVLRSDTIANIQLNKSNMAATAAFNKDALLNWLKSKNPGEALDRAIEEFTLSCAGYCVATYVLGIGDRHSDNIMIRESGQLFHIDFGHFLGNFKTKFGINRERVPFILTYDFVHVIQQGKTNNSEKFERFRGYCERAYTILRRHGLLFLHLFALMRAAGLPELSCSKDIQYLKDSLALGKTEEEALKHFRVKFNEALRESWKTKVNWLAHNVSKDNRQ
PI3Kδ (p110δ/p85α) Recombinant Human Protein, sequence (P27986 whole entry partner): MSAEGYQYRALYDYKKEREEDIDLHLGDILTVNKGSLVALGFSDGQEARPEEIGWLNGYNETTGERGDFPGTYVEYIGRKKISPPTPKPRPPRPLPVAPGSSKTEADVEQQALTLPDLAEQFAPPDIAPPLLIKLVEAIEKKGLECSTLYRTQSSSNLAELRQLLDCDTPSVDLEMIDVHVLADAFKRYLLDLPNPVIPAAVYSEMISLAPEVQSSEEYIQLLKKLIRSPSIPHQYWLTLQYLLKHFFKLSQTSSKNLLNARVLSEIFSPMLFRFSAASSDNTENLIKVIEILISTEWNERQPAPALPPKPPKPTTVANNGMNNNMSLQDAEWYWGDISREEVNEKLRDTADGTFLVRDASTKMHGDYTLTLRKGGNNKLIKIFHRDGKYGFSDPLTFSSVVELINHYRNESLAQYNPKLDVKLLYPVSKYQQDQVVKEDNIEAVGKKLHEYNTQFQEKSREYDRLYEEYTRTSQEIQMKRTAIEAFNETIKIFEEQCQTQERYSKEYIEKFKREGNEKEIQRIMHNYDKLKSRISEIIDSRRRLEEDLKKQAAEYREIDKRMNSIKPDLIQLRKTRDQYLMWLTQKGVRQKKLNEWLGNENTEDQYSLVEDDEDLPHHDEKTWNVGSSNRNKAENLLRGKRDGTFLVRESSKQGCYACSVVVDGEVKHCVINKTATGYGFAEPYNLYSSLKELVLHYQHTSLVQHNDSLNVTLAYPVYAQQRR

On to `Cc1ccc(S(=O)(=O)NC2CC2)cc1-c1cnc2c(N)nccn12` [Example 47, 3-(8-Aminoimidazo[1,2-a]pyrazin-3-yl)-N-cyclopropyl-4-methylbenzenesulfoanmide], for which the figures for the IC50 in experiment [1], in experiment [2] and in experiment [3] were greater than 1000 nM, 500 to 2000 nM and less than 100 nM, respectively.

Regarding `Cc1ccc(S(=O)(=O)NCC2CCOC2)cc1-c1cnc2c(N)nccn12` (stereo not drawn) [Example 48, 3-(8-Aminoimidazo[1,2-a]pyrazin-3-yl)-4-methyl-N-(tetrahydrofuran-3-ylmethyl)benzenesulfonamide], the IC50 in experiment [1] (Homo sapiens) is greater than 1000 nM; in experiment [2], 500 to 2000 nM; in experiment [3], less than 100 nM.

As for `Cc1ccc(S(=O)(=O)NC2CCOCC2)cc1-c1cnc2c(N)nccn12` [Example 49, 3-(8-Aminoimidazo[1,2-a]pyrazin-3-yl)-4-methyl-N-(tetrahydro-2H-pyran-4-yl)benzenesulfonamide], the IC50 is greater than 1000 nM in experiment [1] (Homo sapiens), 500 to 2000 nM in experiment [2] and less than 100 nM in experiment [3].

On to `Cc1ccc(S(=O)(=O)NCCCO)cc1-c1cnc2c(N)nccn12` [Example 50, 3-(8-Aminoimidazo[1,2-a]pyrazin-3-yl)-N-(3-hydroxypropyl)-4-methylbenzenesulfonamide], for which the results for the IC50 in experiment [1] (Homo sapiens), in experiment [2] and in experiment [3] were greater than 1000 nM, 500 to 2000 nM and less than 100 nM, respectively.

As for `Cc1ccc(S(=O)(=O)N2CCC(O)CC2)cc1-c1cnc2c(N)nccn12` [Example 51, 1-{[3-(8-Aminoimidazo[1,2-a]pyrazin-3-yl)-4-methylphenyl]sulfonyl}piperidin-4-ol], the IC50 was greater than 1000 nM in experiment [1] (Homo sapiens), 500 to 2000 nM in experiment [2] and less than 100 nM in experiment [3].

With `Cc1ccc(S(=O)(=O)N(C)[C@H]2CC[C@H](O)CC2)cc1-c1cnc2c(N)nccn12` [Example 52, 3-(8-Aminoimidazo[1,2-a]pyrazin-3-yl)-N-(trans-4-hydroxycyclohexyl)-N,4-dimethylbenzenesulfonamide], the values for the IC50 in experiment [1] (Homo sapiens), in experiment [2] and in experiment [3] were 500 to 1000 nM, 100 to 500 nM and less than 100 nM, respectively.

`CO[C@H]1CC[C@H](NS(=O)(=O)c2ccc(C)c(-c3cnc4c(N)nccn34)c2)CC1` [Example 53, 3-(8-Aminoimidazo[1,2-a]pyrazin-3-yl)-N-(trans-4-methoxycyclohexyl)-4-methylbenzenesulfonamide]: the IC50 in experiment [1] (Homo sapiens) was greater than 1000 nM; in experiment [2], 500 to 2000 nM; in experiment [3], less than 100 nM.

As to `Cc1ccc(S(=O)(=O)N[C@H]2C[C@H](O)C2)cc1-c1cnc2c(N)nccn12` [Example 54, 3-(8-Aminoimidazo[1,2-a]pyrazin-3-yl)-N-(trans-3-hydroxycyclobutyl)-4-methylbenzenesulfonamide], the IC50 in experiment [1] (Homo sapiens) was greater than 1000 nM; in experiment [2] it was 100 to 500 nM; in experiment [3] it was less than 100 nM.

For `Cc1ccc(S(=O)(=O)N[C@H]2CC[C@H](NC(=O)OC(C)(C)C)CC2)cc1-c1cnc2c(N)nccn12` [Example 55, tert-Butyl [trans-4-({[3-(8-aminoimidazo[1,2-a]pyrazin-3-yl)-4-methylphenyl]sulfonyl}amino)cyclohexyl]carbamate], the half-inhibitory concentration (IC50) in experiment [1] (Homo sapiens) was greater than 1000 nM; in experiment [2] it was greater than 2000 nM; in experiment [3] it was less than 100 nM.

For `Cc1ccc(S(=O)(=O)N[C@H]2C[C@H](CO)C2)cc1-c1cnc2c(N)nccn12` [Example 56, 3-(8-Aminoimidazo[1,2-a]pyrazin-3-yl)-N-[trans-3-(hydroxymethyl)cyclobutyl]-4-methylbenzenesulfonamide], the IC50 was greater than 1000 nM in experiment [1] (Homo sapiens), 500 to 2000 nM in experiment [2] and less than 100 nM in experiment [3].

Consider `Cc1ccc(S(=O)(=O)N[C@H]2CC[C@H](CO)OC2)cc1-c1cnc2c(N)nccn12` [Example 57, 3-(8-Aminoimidazo[1,2-a]pyrazin-3-yl)-N-[(3S,6R)-6-(hydroxymethyl)tetrahydro-2H-pyran-3-yl]-4-methylbenzenesulfonamide], for which the IC50 in experiment [1] (Homo sapiens) was greater than 1000 nM; in experiment [2] it was 500 to 2000 nM; in experiment [3], less than 100 nM.

Turning to `Cc1ccc(S(=O)(=O)N[C@H]2CC[C@H](N)CC2)cc1-c1cnc2c(N)nccn12` [Example 58, N-(trans-4-Aminocyclohexyl)-3-(8-aminoimidazo[1,2-a]pyrazin-3-yl)-4-methylbenzenesulfonamide], the IC50 was greater than 1000 nM in experiment [1] (Homo sapiens), 500 to 2000 nM in experiment [2] and 100 to 500 nM in experiment [3].

With `CC(=O)N[C@H]1CC[C@H](NS(=O)(=O)c2ccc(C)c(-c3cnc4c(N)nccn34)c2)CC1` [Example 59, N-[trans-4-({[3-(8-Aminoimidazo[1,2-a]pyrazin-3-yl)-4-methylphenyl]sulfonyl}amino)cyclohexyl]acetamide], the IC50 in experiment [1] (Homo sapiens) was greater than 1000 nM; in experiment [2], 500 to 2000 nM; in experiment [3], less than 100 nM.

`Cc1ccc(S(=O)(=O)N[C@H]2C[C@H](CO)C2)cc1-c1cnc2c(N)ncnn12` [Example 60, 3-(4-Aminoimidazo[1,2-f][1,2,4]triazin-7-yl)-N-[trans-3-(hydroxymethyl)cyclobutyl]-4-methylbenzenesulfonamide]: the values for the IC50 in experiment [1], in experiment [2] and in experiment [3] were 100 to 500 nM, 100 to 500 nM and less than 100 nM, respectively.

For the compound `Cc1ccc(S(=O)(=O)N[C@H]2C[C@@H](CO)C2)cc1-c1cnc2c(N)ncnn12` [Example 61, 3-(4-Aminoimidazo[2,1-f][1,2,4]triazin-7-yl)-N-[cis-3-(hydroxymethyl)cyclobutyl]-4-methylbenzenesulfonamide], the IC50 in experiment [1] (Homo sapiens) was 500 to 1000 nM; in experiment [2] it was 500 to 2000 nM; in experiment [3], less than 100 nM.

Take `Cc1ccc(S(=O)(=O)N[C@H]2CC[C@H](CO)OC2)cc1-c1cnc2c(N)ncnn12` [Example 62, 3-(4-Aminoimidazo[2,1-f][1,2,4]triazin-7-yl)-N-[(3S,6R)-6-(hydroxymethyl)tetrahydro-2H-pyran-3-yl]-4-methylbenzenesulfonamide]: the IC50 in experiment [1] (Homo sapiens) was 100 to 500 nM; in experiment [2] it was 100 to 500 nM; in experiment [3], less than 100 nM.

With `Cc1ccc(S(=O)(=O)N[C@H]2CC[C@@H](O)CC2)cc1-c1cnc2c(N)ncnn12` [Example 63, 3-(4-Aminoimidazo[2,1-f][1,2,4]triazin-7-yl)-N-(cis-4-hydroxycyclohexyl)-4-methylbenzenesulfonamide], the IC50 in experiment [1] (Homo sapiens) is 100 to 500 nM; in experiment [2], 100 to 500 nM; in experiment [3], less than 100 nM.

With `Cc1ccc(S(=O)(=O)NC2CC2)cc1-c1cnc2c(N)ncnn12` [Example 64, 3-(4-Aminoimidazo[2,1-f][1,2,4]triazin-7-yl)-N-cyclopropyl-4-methylbenzenesulfonamide], the results for the IC50 in experiment [1] (Homo sapiens), in experiment [2] and in experiment [3] were greater than 1000 nM, greater than 2000 nM and less than 100 nM, respectively.

As to `Cc1ccc(S(=O)(=O)NCCCO)cc1-c1cnc2c(N)ncnn12` [Example 65, 3-(4-Aminoimidazo[2,1-f][1,2,4]triazin-7-yl)-N-(3-hydroxypropyl)-4-methylbenzenesulfonamide], the IC50 in experiment [1] (Homo sapiens) is greater than 1000 nM; in experiment [2], greater than 2000 nM; in experiment [3], less than 100 nM.

Consider `Cc1ccc(S(=O)(=O)NC2CCOCC2)cc1-c1cnc2c(N)ncnn12` [Example 68, 3-(4-Aminoimidazo[2,1-f][1,2,4]triazin-7-yl)-4-methyl-N-(tetrahydro-2H-pyrazn-4-yl)benzenesulfonamide], for which the IC50 in experiment [1] was 500 to 1000 nM; in experiment [2], 500 to 2000 nM; in experiment [3] it was less than 100 nM.
